In patent publication US20230167073A1 (Teijin Pharma Limited, priority 2020, published 2023):

Target: T1, Human TRPC6 (Homo sapiens, UniProt Q9Y210)
T1 construct: expressed in transfected cells
T1 sequence (Q9Y210 1-931): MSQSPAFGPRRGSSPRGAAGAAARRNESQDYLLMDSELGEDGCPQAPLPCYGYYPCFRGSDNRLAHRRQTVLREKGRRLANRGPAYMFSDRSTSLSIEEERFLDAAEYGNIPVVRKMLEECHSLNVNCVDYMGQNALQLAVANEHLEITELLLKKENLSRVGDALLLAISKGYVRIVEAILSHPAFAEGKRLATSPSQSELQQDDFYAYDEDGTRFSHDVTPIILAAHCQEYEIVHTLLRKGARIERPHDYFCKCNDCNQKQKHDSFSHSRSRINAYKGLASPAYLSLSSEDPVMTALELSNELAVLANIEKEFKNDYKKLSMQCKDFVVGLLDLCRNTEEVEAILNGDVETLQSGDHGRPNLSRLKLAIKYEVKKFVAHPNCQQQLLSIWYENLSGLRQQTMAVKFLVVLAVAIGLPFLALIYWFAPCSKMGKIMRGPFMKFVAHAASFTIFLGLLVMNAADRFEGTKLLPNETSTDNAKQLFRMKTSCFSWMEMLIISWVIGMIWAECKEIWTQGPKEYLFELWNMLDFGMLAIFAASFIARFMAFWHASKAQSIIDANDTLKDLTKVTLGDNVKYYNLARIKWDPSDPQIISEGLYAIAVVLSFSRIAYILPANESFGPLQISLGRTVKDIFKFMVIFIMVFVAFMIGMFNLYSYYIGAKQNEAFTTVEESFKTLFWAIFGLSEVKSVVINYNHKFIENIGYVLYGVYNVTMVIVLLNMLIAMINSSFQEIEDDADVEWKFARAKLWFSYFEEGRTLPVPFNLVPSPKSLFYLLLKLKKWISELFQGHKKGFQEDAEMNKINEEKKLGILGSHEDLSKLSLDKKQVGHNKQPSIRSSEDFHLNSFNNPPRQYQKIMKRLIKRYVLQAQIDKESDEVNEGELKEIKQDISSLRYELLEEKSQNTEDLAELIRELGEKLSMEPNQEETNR
Test: Evaluation of TRPC6 channel inhibitory activity (1), FLIPR Calcium 5 Assay Kit, OAG stimulation (Compound Nos. 1-1293)
Assay type: cell-based
Conditions: Human TRPC6 stably-expressing cells, OAG 30 μM, FLIPR Calcium 5 Assay Kit; read-out: Inhibitory activity (pIC50 class) (converted)
Summary of the method: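 Calcium influx read by FLIPR fluorescence in cells stably expressing human TRPC6, dye-loaded 30 min. Compounds preincubated 20 min, then OAG stimulation at 30 μM final. Inhibition fitted by four-parameter logistic regression to give pIC50, reported as +/++/+++ categories.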

| IC50 [nM] | Structure (SMILES) |
| --- | --- |
| 10 to 1000 | Cn1nc(C(C)(C)C)cc1C(O)c1cc(C#N)ccc1-c1ncc(CCN)cn1 (stereo not shown) [compound 1235, 4-[5-(2-aminoethyl)pyrimidin-2-yl]-3-[(5-tert-butyl-2-methylpyrazol-3-yl)-hydroxymethyl]benzonitrile] |
| 10 to 1000 | Cc1ncc(-c2cc(Oc3cc(C#N)ccc3-c3ncc(CN)cn3)n(C)n2)s1 [compound 962, 4-[5-(aminomethyl)pyrimidin-2-yl]-3-[2-methyl-5-(2-methyl-1,3-thiazol-5-yl)pyrazol-3-yl]oxybenzonitrile] |
| < 10 | CCCc1cc(Oc2cc(C#N)ccc2-c2ccc(CCN)cn2)n(C)n1 [Compound 230, 4-[5-(2-aminoethyl)pyridin-2-yl]-3-(2-methyl-5-propylpyrazol-3-yl)oxybenzonitrile] |
| > 1000 | N#Cc1ccc(-c2ccc(CCN)cc2)c(Cn2cnc(-c3ccc(C(F)(F)F)cc3)c2)c1 [compound 1124, 4-[4-(2-aminoethyl)phenyl]-3-[[4-[4-(trifluoromethyl)phenyl]imidazol-1-yl]methyl]benzonitrile] |
| < 10 | CC(C)n1nc(C2CC2)cc1Oc1cc(C#N)ccc1-c1ccc([C@@H](O)CN)cn1 [compound 382, 4-[5-[(1R)-2-amino-1-hydroxyethyl]pyridin-2-yl]-3-(5-cyclopropyl-2-propan-2-ylpyrazol-3-yl)oxybenzonitrile] |
| < 10 | Cc1cc(Oc2cc(C#N)ccc2-c2ncc([C@H](O)CN)cn2)cc(N2CCCCC2)n1 [compound 501, 4-[5-[(1S)-2-amino-1-hydroxyethyl]pyrimidin-2-yl]-3-(2-methyl-6-piperidin-1-ylpyridin-4-yl)oxybenzonitrile] |
| > 1000 | Cc1c(Oc2cc(C#N)ccc2-c2ncc(CN)cn2)cnn1-c1ccccn1 [compound 831, 4-[5-(aminomethyl)pyrimidin-2-yl]-3-(5-methyl-1-pyridin-2-ylpyrazol-4-yl)oxybenzonitrile] |
| < 10 | N#Cc1ccc(-c2ncc(CCN)cn2)c(C(=O)c2cnn(-c3ccccn3)c2)c1 [compound 1037, 4-[5-(2-aminoethyl)pyrimidin-2-yl]-3-(1-pyridin-2-ylpyrazole-4-carbonyl)benzonitrile] |
| > 1000 | Cc1nc(OCC2CCCCC2)cc(Oc2cc(C#N)ccc2-c2ccc(CCN)cc2)n1 [Compound 39, 4-[4-(2-aminoethyl)phenyl]-3-[6-(cyclohexylmethoxy)-2-methylpyrimidin-4-yl]oxybenzonitrile] |
| 10 to 1000 | CC(C)n1cc(C(=O)c2cc(F)ccc2-c2ncc(CCN)cn2)cn1 [compound 1102, [2-[5-(2-aminoethyl)pyrimidin-2-yl]-5-fluorophenyl]-(1-propan-2-ylpyrazol-4-yl)methanone] |
| < 10 | Cn1nc(C2CCOC2)cc1Oc1cc(C#N)ccc1-c1ccc(CCN)cn1 (stereo not shown) [compound 496, 4-[5-(2-aminoethyl)pyridin-2-yl]-3-[2-methyl-5-(oxolan-3-yl)pyrazol-3-yl]oxybenzonitrile] |
| > 1000 | Cn1nc(C2CC2)cc1Oc1cc(C#N)ccc1-c1cccc(CN)n1 [compound 480, 4-[6-(aminomethyl)pyridin-2-yl]-3-(5-cyclopropyl-2-methylpyrazol-3-yl)oxybenzonitrile] |
| > 1000 | Cc1c(Oc2cc(F)ccc2-c2ncc(CCN)cn2)cnn1-c1ccccn1 [compound 971, 2-[2-[4-fluoro-2-(5-methyl-1-pyridin-2-ylpyrazol-4-yl)oxyphenyl]pyrimidin-5-yl]ethanamine] |
| < 10 | Cn1nc(-c2cccc(F)c2)cc1Oc1cc(C#N)ccc1-c1ncc(CCN)cn1 [compound 402, 4-[5-(2-aminoethyl)pyrimidin-2-yl]-3-[5-(3-fluorophenyl)-2-methylpyrazol-3-yl]oxybenzonitrile] |
| > 1000 | Cn1nc(C2CC2)cc1Oc1cc(C#N)ccc1-c1ccc(C(N)C(=O)N2CCOCC2)cn1 (stereo not shown) [Compound No. 487, 4-[5-(1-Amino-2-morpholin-4-yl-2-oxoethyl)pyridin-2-yl]-3-(5-cyclopropyl-2-methylpyrazol-3-yl)oxybenzonitrile] |
| > 1000 | Cc1nc(Oc2cc(C#N)ccc2-c2ncc(CCN)cn2)cc(N2C=NCCC2)n1 [compound 881, 4-[5-(2-aminoethyl)pyrimidin-2-yl]-3-[6-(5,6-dihydro-4H-pyrimidin-1-yl)-2-methylpyrimidin-4-yl]oxybenzonitrile] |

| IC50 [nM] | Structure (SMILES) |
| --- | --- |
| > 1000 | Cc1nc(C(=O)c2cc(C#N)ccc2-c2ncc(CN)cn2)cc(N2CCOCC2)n1 [compound 1053, 4-[5-(aminomethyl)pyrimidin-2-yl]-3-(2-methyl-6-morpholin-4-ylpyrimidine-4-carbonyl)benzonitrile] |
| > 1000 | Cc1nc(Oc2cc(C#N)ccc2-c2ncc(CN)cn2)cc(N2CCCC2=O)n1 [compound 851, 4-[5-(aminomethyl)pyrimidin-2-yl]-3-[2-methyl-6-(2-oxopyrrolidin-1-yl)pyrimidin-4-yl]oxybenzonitrile] |
| 10 to 1000 | Cn1nc(-c2cccnc2)cc1Oc1cc(C#N)ccc1-c1ccc(CCN)nc1 [Compound 178, 4-[6-(2-aminoethyl)pyridin-3-yl]-3-(2-methyl-5-pyridin-3-ylpyrazol-3-yl)oxybenzonitrile] |
| < 10 | Cn1nc(C(C)(C)C)cc1Oc1cc(C#N)ccc1-c1ncc([C@H](O)CN)cn1 [compound 406, 4-[5-[(1S)-2-amino-1-hydroxyethyl]pyrimidin-2-yl]-3-(5-tert-butyl-2-methylpyrazol-3-yl)oxybenzonitrile] |
| < 10 | Cc1ccnc(-c2cc(Oc3cc(C#N)ccc3-c3ncc(CN)cn3)n(C)n2)c1 [compound 652, 4-[5-(aminomethyl)pyrimidin-2-yl]-3-[2-methyl-5-(4-methylpyridin-2-yl)pyrazol-3-yl]oxybenzonitrile] |
| < 10 | Cn1nc(N2CCCC2)cc1Cc1cc(C#N)ccc1-c1ccc(CCN)cn1 [compound 1212, 4-[5-(2-aminoethyl)pyridin-2-yl]-3-[(2-methyl-5-pyrrolidin-1-ylpyrazol-3-yl)methyl]benzonitrile] |
| 10 to 1000 | Cc1cc(Oc2cc(C#N)ccc2-c2ncc(CCN)cn2)cc(OCC2CCO2)n1 (stereo not shown) [compound 473, 4-[5-(2-aminoethyl)pyrimidin-2-yl]-3-[2-methyl-6-(oxetan-2-ylmethoxy)pyridin-4-yl]oxybenzonitrile] |
| > 1000 | Cc1nc(CN2CCCCC2)cn1Cc1cc(C#N)ccc1-c1ncc(CCN)cn1 [Compound No. 1179, 4-[5-(2-Aminoethyl)pyrimidin-2-yl]-3-[[2-methyl-4-(piperidin-1-ylmethyl)imidazol-1-yl]methyl]benzonitrile] |
| < 10 | NCCc1ccc(-c2ccc(F)cc2C(=O)c2cnn(C3CCC3)c2)nc1 [compound 1110, [2-[5-(2-aminoethyl)pyridin-2-yl]-5-fluorophenyl]-(1-cyclobutylpyrazol-4-yl)methanone] |
| 10 to 1000 | Cn1nc(C2CC2)cc1Oc1cc(F)ccc1-c1ncc(CN)cn1 [compound 1015, [2-[2-(5-cyclopropyl-2-methylpyrazol-3-yl)oxy-4-fluorophenyl]pyrimidin-5-yl]methanamine] |
| > 1000 | Cc1nc(OCC2(C)COC2)cc(Oc2cc(C#N)ccc2-c2ncc(CN)cn2)n1 [compound 894, 4-[5-(aminomethyl)pyrimidin-2-yl]-3-[2-methyl-6-[(3-methyloxetan-3-yl)methoxy]pyrimidin-4-yl]oxybenzonitrile] |
| < 10 | Cc1nc(Oc2cc(C#N)ccc2-c2ccc(CCN)cc2)cc(N2CCC[C@H]2C#N)n1 [Compound 112, (2S)-1-[6-[2-[4-(2-aminoethyl)phenyl]-5-cyanophenoxy]-2-methylpyrimidin-4 yl]pyrrolidine-2-carbonitrile] |
| < 10 | Cc1cc(Oc2cc(C#N)ccc2-c2ncc([C@H](O)CN)cn2)cc(N2CCO[C@@H](C)C2)n1 [compound 530, 4-[5-[(1S)-2-amino-1-hydroxyethyl]pyrimidin-2-yl]-3-[2-methyl-6-[(2S)-2-methylmorpholin-4-yl]pyridin-4-yl]oxybenzonitrile] |
| < 10 | Cn1nc(C2CCC2)cc1Oc1cc(C#N)ccc1-c1ccc(C(O)CN)cn1 (stereo not shown) [Compound 276, 4-[5-(2-amino-1-hydroxyethyl)pyridin-2-yl]-3-(5-cyclobutyl-2-methylpyrazol-3-yl)oxybenzonitrile] |
| < 10 | Cc1nc(Oc2cc(C#N)ccc2-c2ccc(CC(C)(C)N)cc2)cc(N2CCOCC2)n1 [Compound 247, 4-[4-(2-amino-2-methylpropyl)phenyl]-3-(2-methyl-6-morpholin-4-ylpyrimidin-4-yl)oxybenzonitrile] |
